Laboratory results published in patent US20160242416A1, “FUNGICIDAL ISOXAZOLINE CARBINOLS” (E I DU PONT DE NEMOURS AND COMPANY, priority 2015, published 2016).

Assays:
[1] = tested on: Erysiphe graminis f sp. tritici; assay: Test G: wheat powdery mildew, preventive spray on wheat seedlings; conditions: wheat powdery mildew, 100 = 100% disease control, 0 = no control
Botrytis cinerea = assay: Test B: gray mold, preventive spray on tomato seedlings; conditions: gray mold on tomato, 100 = 100% disease control, 0 = no control
Stagonospora nodorum = assay: Test D: wheat glume blotch, preventive spray on wheat seedlings; conditions: wheat glume blotch, 100 = 100% disease control, 0 = no control
Zymoseptoria tritici = assay: Test E: wheat leaf blotch, preventive spray on wheat seedlings; conditions: wheat leaf blotch, 100 = 100% disease control, 0 = no control
[2] = tested on: Puccinia recondita f sp. tritici; assay: Test F: wheat leaf rust, preventive spray on wheat seedlings; conditions: wheat leaf rust, 100 = 100% disease control, 0 = no control

Structure (SMILES)	Test G rating (% disease control) ([1]; 10 ppm) [%]	Test B rating (% disease control) (Botrytis cinerea; 10 ppm) [%]	Test D rating (% disease control) (Stagonospora nodorum; 10 ppm) [%]	Test E rating (% disease control) (Zymoseptoria tritici; 10 ppm) [%]	Test F rating (% disease control) ([2]; 10 ppm) [%]	Test G rating (% disease control) ([1]; 50 ppm (asterisk)) [%]	Test B rating (% disease control) (Botrytis cinerea; 50 ppm (asterisk)) [%]	Test D rating (% disease control) (Stagonospora nodorum; 50 ppm (asterisk)) [%]	Test E rating (% disease control) (Zymoseptoria tritici; 50 ppm (asterisk)) [%]	Test F rating (% disease control) ([2]; 50 ppm (asterisk)) [%]
OC(Cn1cncn1)(C1=NOC(CSc2ccccc2)C1)c1ccc(Cl)cc1 (single isomer, unassigned) [Compound 50]	94	19	87	3	99	–	–	–	–	–
OC(Cn1cncn1)(C1=NOC(COc2ccc(Cl)cn2)C1)c1ccc(Cl)cc1 (single isomer, unassigned) [Compound 165]	100	0	72	5	99	–	–	–	–	–
OC(Cn1cncn1)(C1=NOC(c2ccc(Cl)cc2)C1)c1ccc(Oc2ccccc2)cc1 (single isomer, unassigned) [Compound 128]	–	–	–	–	–	99	0	100	95	100
CC(C)(C)C(O)(Cn1cncn1)C1=NOC(COc2ccc(Cl)cc2)C1 (stereo not drawn) [Compound 175, α-[5-[(4-chlorophenoxy)methyl]-4,5-dihydro-3-isoxazolyl]-α-(1,1-dimethylethyl)-1H-1,2,4-triazole-1-ethanol]	100	0	100	1	100	–	–	–	–	–
CC(C)(C)C(O)(Cn1cncn1)C1=NOC(COCc2ccccc2)C1 (single isomer, unassigned) [Compound 60]	90	0	73	3	28	–	–	–	–	–
CC(C)(C)C(O)(Cn1cncn1)C1=NOC(CSc2ccccc2)C1 (single isomer, unassigned) [Compound 73]	56	25	62	0	9	–	–	–	–	–
CC(C)(C)CC(O)(Cn1cncn1)C1=NOC(COc2ccc(Cl)cc2)C1 (single isomer, unassigned) [Compound 172]	99	0	100	4	100	–	–	–	–	–
CC(C)(C)C(O)(Cn1cncn1)C1=NOC(Cc2ccc(Br)cc2)C1 (single isomer, unassigned) [Compound 53]	99	70	99	20	100	–	–	–	–	–
OC(Cn1cncn1)(C1=NOC(COCc2ccccc2)C1)c1ccc(Cl)cc1 (single isomer, unassigned) [Compound 57]	97	0	0	0	97	–	–	–	–	–
CCCCC(O)(Cn1cncn1)C1=NOC(c2ccc(Cl)cc2)C1 (single isomer, unassigned) [Compound 156]	100	0	98	19	100	–	–	–	–	–
CC(C)(C)C(O)(Cn1cncn1)C1=NOC(CO[Si](C)(C)C(C)(C)C)C1 (single isomer, unassigned) [Compound 9]	64	0	0	0	0	–	–	–	–	–
OC(Cn1cncn1)(C1=NOC(COCc2ccccc2)C1)c1ccc(Cl)cc1 (single isomer, unassigned) [Compound 58]	68	0	0	0	0	–	–	–	–	–
OC(Cn1cncn1)(C1=NOC(c2ccc(Cl)cc2)C1)c1ccc(C(F)(F)F)cc1 (single isomer, unassigned) [Compound 106]	89	0	0	0	72	–	–	–	–	–
OC(Cn1cncn1)(C1=NOC(COc2ccc(Cl)cn2)C1)c1ccc(Cl)cc1 (single isomer, unassigned) [Compound 164]	100	0	95	96	100	–	–	–	–	–
CC(C)(C)C(O)(Cn1cncn1)C1=NOC(COc2ccc3c(c2)OCO3)C1 (single isomer, unassigned) [Compound 45]	87	70	99	0	67	–	–	–	–	–
CC(C)(C)CC1CC(C(O)(Cn2cncn2)C(C)(C)C)=NO1 (single isomer, unassigned) [Compound 78]	0	0	0	0	0	–	–	–	–	–
OC(Cn1cncn1)(C1=NOC(c2ccc(-n3cc(Br)cn3)cc2)C1)c1ccc(Cl)cc1 (single isomer, unassigned) [Compound 5]	100	0	40	48	100	–	–	–	–	–
CC(C)(C)C(O)(Cn1cncn1)C1=NOC(c2cnccn2)C1 (single isomer, unassigned) [Compound 169]	0	0	9	4	0	–	–	–	–	–
CC(C)(C)CC(O)(Cn1cncn1)C1=NOC(c2ccc(Cl)cc2)C1 (single isomer, unassigned) [Compound 138]	100	17	100	0	100	–	–	–	–	–
CCC(C)(C)C(O)(Cn1cncn1)C1=NOC(Cc2ccc(C(F)(F)F)cc2)C1 (single isomer, unassigned) [Compound 19]	100	0	89	10	100	–	–	–	–	–
CC(C)(C)C(O)(Cn1cncn1)C1=NOC(COc2ccc(-n3cc(Cl)cn3)cc2)C1 (stereo not shown) [Compound 31]	100	0	0	0	0	–	–	–	–	–
OC(Cn1cncn1)(C1=NOC(COc2ccc(OCc3ccccc3)cc2)C1)c1ccc(Cl)cc1 (single isomer, unassigned) [Compound 70]	76	28	47	0	9	–	–	–	–	–
CC(C)(C)C(O)(Cn1cncn1)C1=NOC(CCc2ccc(C(F)(F)F)cc2)C1 (single isomer, unassigned) [Compound 14]	99	0	88	4	100	–	–	–	–	–
